Read-outs that look alike come from different tables or passages of the source.
Key:
Assay type in all cases: cell-based
[1] = test system: A549 human lung cancer cells; test: MTT cell growth inhibition, A549; settings: for IC50: Homo sapiens, read-out: IC50 for cell growth inhibition; for Enhanced Potency: ratio of IC50 NSAID/POSH-NSAID, fold-enhancement over parent, A549
[2] = test system: LNCAP human prostate cancer cells; test: MTT cell growth inhibition, LNCAP; settings: 24 h; for IC50: Homo sapiens, read-out: IC50 for cell growth inhibition; for Enhanced Potency: ratio of IC50 NSAID/POSH-NSAID, fold-enhancement over parent, LNCAP
[3] = test system: HT-29 human colon adenocarcinoma cells; test: MTT cell growth inhibition, HT-29; settings: for IC50: Homo sapiens, read-out: IC50 for cell growth inhibition; for Enhanced Potency: ratio of IC50 NSAID/POSH-NSAID, fold-enhancement over parent, HT-29
[4] = test system: HCT-15 human colon adenocarcinoma cells; test: MTT cell growth inhibition, HCT 15; settings: for IC50: Homo sapiens, read-out: IC50 for cell growth inhibition; for Enhanced Potency: ratio of IC50 NSAID/POSH-NSAID, fold-enhancement over parent, HCT 15
[5] = test system: BxPC-3 human pancreatic cancer cells; test: MTT cell growth inhibition, BxPC3; settings: for IC50: Homo sapiens, read-out: IC50 for cell growth inhibition; for Enhanced Potency: ratio of IC50 NSAID/POSH-NSAID, fold-enhancement over parent, BxPC3
[6] = test system: SW-480 human colon adenocarcinoma cells; test: MTT cell growth inhibition, SW480; settings: for IC50: Homo sapiens, read-out: IC50 for cell growth inhibition; for Enhanced Potency: ratio of IC50 NSAID/POSH-NSAID, fold-enhancement over parent, SW480
[7] = test system: Jurkats human leukemia cells; test: MTT cell growth inhibition, Jurkat; settings: 24 h; for IC50: Homo sapiens, read-out: IC50 for cell growth inhibition; for Enhanced Potency: ratio of IC50 NSAID/POSH-NSAID, fold-enhancement over parent
[8] = test system: MIA PaCa-2 human pancreatic cancer cells; test: MTT cell growth inhibition, MIAPaCa2; settings: for IC50: Homo sapiens, read-out: IC50 for cell growth inhibition; for Enhanced Potency: ratio of IC50 NSAID/POSH-NSAID, fold-enhancement over parent, MIAPaCa2
[9] = 24 h, Lung A549, mean ± SEM of three determinations
[10] = Prostate LNCAP, mean ± SEM of three determinations
[11] = BXPC-3, 24 h, Pancreas BxPC3, mean ± SEM of three determinations
[12] = Leukemia Jurkat, mean ± SEM of three determinations
[13] = MIA PaCa-2, 24 h, Pancreas MIAPaCa2, mean ± SEM of three determinations

Compound	IC50 ([1]; A549, 24 h)	Enhanced Potency ([1]; 24 h)	IC50 ([2]; LNCaP)	Enhanced Potency [2]	IC50 ([3]; HT-29, 24 h)	Enhanced Potency ([3]; 24 h)	IC50 ([4]; HCT-15, 24 h)	Enhanced Potency ([4]; 24 h)	IC50 ([5]; BXPC-3, 24 h)	Enhanced Potency ([5]; 24 h)	IC50 ([6]; SW480, 24 h)	Enhanced Potency ([6]; 24 h)	IC50 ([7]; Jurkat)	Enhanced Potency ([7]; Jurkat)	IC50 ([8]; MIA PaCa-2, 24 h)	Enhanced Potency ([8]; 24 h)	IC50 [1, 9]	IC50 [2, 10]	IC50 [5, 11]	IC50 [7, 12]	also measured
CCOP(=O)(OCC)OCCSSCCOC(=O)C(C)c1ccc2cc(OC)ccc2c1 (stereo not drawn) [POSH-NAP]	0.16 µM	~16,000	0.13 µM	~25,000	0.15 µM	~18,000	0.12 µM	~24,000	0.1 µM	~26,000	0.18 µM	~17,000	0.17 µM	~14,000	0.088 µM	~36,000	–	–	–	–	–
CCOP(=O)(OCC)OCCSSCCOC(=O)c1ccccc1OC(C)=O [POSH-ASA]	0.083 µM	>60,000	0.075 µM	>65,000	0.082 µM	>60,000	0.075 µM	>65,000	0.075 µM	>65,000	0.092 µM	>50,000	0.22 µM	>20,000	0.082 µM	>60,000	–	–	–	–	–
COc1ccc2cc([C@H](C)C(=O)O)ccc2c1 [NAP, naproxen, reference compound]	–	–	–	–	–	–	–	–	–	–	–	–	–	–	–	–	2650 µM	2990 µM	2600 µM	2380 µM	IC50 [8, 13]: 3200 µM
CC(=O)Oc1ccccc1C(=O)O [ASA, aspirin, reference compound]	–	–	–	–	–	–	–	–	–	–	–	–	–	–	–	–	> 5000 µM	> 5000 µM	> 5000 µM	> 5000 µM	IC50 ([3]; 24 h, Colon HT-29, mean ± SEM of three determinations): > 5000 µM; IC50 ([4]; 24 h, Colon HCT 15, mean ± SEM of three determinations): > 5000 µM; IC50 ([6]; 24 h, Colon SW480, mean ± SEM of three determinations): > 5000 µM; IC50 [8, 13]: > 5000 µM
